system: CD4+ T cells from PBMC; assay: IFN-γ ELISpot, PBMC-derived in vitro expanded CD4+ T cell lines; format: cell-based, human; parameters: key to T cell recognition by PBMC from a T1D donor (mark E) / T cell recognition by PBMC from a T1D donor: E: T cell recognition by PBMC from a T1D donor was tested and verified; see Figure 5; conditions: MHC-II peptides; tested and verified, see Figure 5

Sequence | T cell recognition by PBMC from a T1D donor (mark E)
NYPSLELDKMAHG | NYPSLELDKMAHG ^ E

same assay, conditions: PTM and unmodified native Pool Peptides (pool PTM 1), long peptides; PBMC T cell lines; responding donors/donors tested

Sequence | T1D Donor T cell response | non-T1D Donor T cell response
SVPHFXDEDKDPE [147-1, PTM peptide, X=phosphoserine, pool PTM DR3] | 0/4 | 0/4
AEDLQVGEVELGGGPGAGSLQPL [145-1, PTM peptide, E=deamidated Q=glutamic acid, pool PTM DR3] | 0/4 | 0/4
AVPEEEGPTVVLNPHPSLG [peptide 148, non-modified native peptide from CHGA, pool PTM DR3] | 0/4 | 0/4

same assay, conditions: SEC (Secretory) DR3 Peptides Set; PBMC T cell lines; responding donors/donors tested

Sequence | T1D Donor T cell response | non-T1D Donor T cell response
GRGGEPRAYFMSDTREE [compound 183, secretory hormone eluted peptide, pool SEC DR3] | 0/4 | 0/4
AAIQDGLAKGENDETVSNT [compound 190, secretory hormone eluted peptide, pool SEC DR3] | 0/4 | 0/4
RPLNEQIAEAEEED [compound 187, secretory hormone eluted peptide from SCG3, pool SEC DR3] | 0/4 | 1/4
SQGLVDREKGLSAEPGWQA [compound 180, secretory hormone eluted peptide from CHGA, pool SEC DR3] | 0/4 | 1/4
HPQGAWKELDRNY [compound 184, secretory hormone eluted peptide from SCG1, pool SEC DR3] | 0/4 | 1/4
DDPDGLHQLDGTPLTAED [compound 189, secretory hormone eluted peptide from SCG3, pool SEC DR3] | 0/4 | 1/4
ELSAERPLNEQIAEAE [compound 186, secretory hormone eluted peptide from SCG3, pool SEC DR3] | 0/4 | 1/4

same assay, conditions: control donor LSLP-153; line expanded with megapool HPAP-DR3 + SEC-DR3, tested with individual peptides (Figure S5C)

Sequence | IFN-γ ELISpot response of expanded CD4 T cells
RPLNEQIAEAEEED [compound 187, secretory hormone eluted peptide from SCG3, pool SEC DR3] | IFN-γ responses
SQGLVDREKGLSAEPGWQA [compound 180, secretory hormone eluted peptide from CHGA, pool SEC DR3] | IFN-γ responses
HPQGAWKELDRNY [compound 184, secretory hormone eluted peptide from SCG1, pool SEC DR3] | IFN-γ responses
DDPDGLHQLDGTPLTAED [compound 189, secretory hormone eluted peptide from SCG3, pool SEC DR3] | IFN-γ responses
ELSAERPLNEQIAEAE [compound 186, secretory hormone eluted peptide from SCG3, pool SEC DR3] | IFN-γ responses

system: CD8+ T cells from PBMC; assay: IFN-γ ELISpot, PBMC-derived in vitro expanded CD8+ T cell lines; format: cell-based, human; parameters: key to T cell recognition by PBMC from a T1D donor: E: T cell recognition by PBMC from a T1D donor was tested and verified; see Figure 5; conditions: A2 Set Peptides; PBMC T cell lines; responding donors/donors tested

Sequence | T1D Donor T cell response | non-T1D Donor T cell response
YLLEKNRVV [compound 117, 15] | 0/4 | 0/2
GLDDIKDLKV [peptide 112, 15] | 3/4 | 0/2
HLANIVERV [compound 141, 18] | 0/4 | 0/2
HLTPSPVPV [compound 121] | 0/5 | 0/2
ALAPAPPQV [compound 127, 16] | 0/4 | 0/2
AQIALQPAL [compound 131, 17] | 0/4 | 0/2
ALANHLIKV [compound 96, 13] | 2/4 | 0/2
RVIGTLEEV [compound 125, 16] | 0/4 | 0/2
AQTEVIATL [compound 94] | 0/5 | 0/2
ELNPKILAL [compound 100, 13] | 0/4 | 0/2
YLHSQVVSV [compound 139, 18] | 0/4 | 0/2
ALDGPPIKV [compound 80, 11] | 1/5 | 0/2
YLLEKSRVV [compound 118, 15] | 0/4 | 0/2
HLMDQPLSV [compound 108, 14] | 0/4 | 0/2
KLIQKNLAT [compound 130, 17] | 0/4 | 0/2
LLDVPTAAV [compound 81, 11] | 1/5 | 0/2
VLAPRVLRA [compound 126, 16] | 0/4 | 0/2
LLDEEISRV [compound 84, 11] | 0/4 | 0/2
KQFPEVIKY [compound 90, 12] | 0/4 | 0/2
LQNPDLVSL [compound 119, 16] | 0/4 | 0/2

same assay, conditions: HPAP-A2 Pool Peptides; PBMC T cell lines; responding donors/donors tested

Sequence | T1D Donor T cell response | non-T1D Donor T cell response
RVVGTLHLL [compound 168] | 0/4 | 0/4

same assay, conditions: MHC-I peptides; superscript E on the peptide; F = verified with C1R-A2 cells

Sequence | T cell recognition by PBMC from a T1D donor
RLSDVQIYV | RLSDVQIYV ^ E
ALMEAIHSA | ALMEAIHSA ^ E
TLDGSLHAV | TLDGSLHAV ^ E
GLDRLNVTV | GLDRLNVTV ^ E

same assay, conditions: T1D donors, PBMC-derived lines (Figure 5J)

Sequence | Number of donors whose CD8 T cells recognized the peptide (IFN-γ ELISpot)
GLDDIKDLKV [peptide 112, 15] | three of the donors

Source: publication PMC12624573, “The antigen presentation landscape of cytokine-stressed human pancreatic islets” (Cell reports, 2025)
